Results published in ChEMBL document CHEMBL4325876, “Novel 3-(2,6,9-trisubstituted-9H-purine)-8-chalcone derivatives as potent anti-gastric cancer agents: Design, synthesis and structural optimization” (Eur J Med Chem, 2019).
Calls of active or inactive are those of the source. The calls are words filed in the database; no cut-off is given here.

What was measured:
TE-1 = experiment: Cytotoxicity against human TE1 cells assessed as inhibition of cell proliferation after 72 hrs by MTT assay; assay type: functional, cell-based; details: TE-1, 72 h
MGC-803 [1] = experiment: Cytotoxicity against human MGC803 cells assessed as inhibition of cell proliferation after 72 hrs by MTT assay; assay type: functional, cell-based; details: MGC-803, 72 h
A549 = experiment: Cytotoxicity against human A549 cells assessed as inhibition of cell proliferation after 72 hrs by MTT assay; assay type: functional, cell-based; details: A549, 72 h
THP-1 = experiment: Cytotoxicity against human THP1 cells assessed as inhibition of cell proliferation after 72 hrs by MTT assay; assay type: functional, cell-based; details: THP-1, 72 h
GES1 = experiment: Cytotoxicity against human GES-1 cells assessed as inhibition of cell proliferation after 72 hrs by MTT assay; assay type: cell-based; details: GES1, 72 h
[2] = Selectivity index, ratio of IC50 for human GES-1 cells to IC50 for human MGC803 cells; assay type: toxicity; details: GES-1 cells versus MGC803 cells, read-out: Ratio IC50
MGC-803 [3] = experiment: Inhibition of colony formation in human MGC803 cells after 7 days by crystal violet staining based assay; assay type: functional, cell-based
MGC-803 [4] = experiment: Induction of apoptosis in human MGC803 cells assessed as cell rounding at 0.25 to 1 uM after 72 hrs by Hoechst 33258 staining based fluorescence microscopic method; assay type: functional
MGC-803 [5] = experiment: Induction of apoptosis in human MGC803 cells assessed as increase in cleaved caspase-3 level after 72 hrs by Western blot analysis; assay type: functional, cell-based
MGC-803 [6] = experiment: Induction of apoptosis in human MGC803 cells assessed as formation of apoptotic bodies at 0.25 to 1 uM after 72 hrs by Hoechst 33258 staining based fluorescence microscopic method; assay type: functional, cell-based
MGC-803 [7] = experiment: Antimigratory activity in human MGC803 cells at 0.25 to 1 uM after 72 hrs by wound healing assay; assay type: functional, cell-based
MGC-803 [8] = experiment: Induction of apoptosis in human MGC803 cells assessed as decrease in Bcl2 expression at 0.25 to 1 uM after 72 hrs by Western blot analysis; assay type: functional, cell-based
MGC-803 [9] = experiment: Induction of apoptosis in human MGC803 cells assessed as apoptotic cells at 1 uM after 72 hrs by Annexin V-FITC/propidium iodide staining based flow cytometry (reference value: 0.6%); assay type: functional
MGC-803 [10] = experiment: Induction of apoptosis in human MGC803 cells assessed as chromatin shrinkage at 0.25 to 1 uM after 72 hrs by Hoechst 33258 staining based fluorescence microscopic method; assay type: functional, cell-based
MGC-803 [11] = experiment: Induction of apoptosis in human MGC803 cells assessed as increase in cleaved caspase-8 level after 72 hrs by Western blot analysis; assay type: functional, cell-based
MGC-803 [12] = experiment: Induction of apoptosis in human MGC803 cells assessed as increase in cleaved caspase-9 level after 72 hrs by Western blot analysis; assay type: functional, cell-based
MGC-803 [13] = experiment: Induction of apoptosis in human MGC803 cells assessed as increase in cleaved PARP level after 72 hrs by Western blot analysis; assay type: functional, cell-based
MGC-803 [14] = experiment: Antiinvasive activity in human MGC803 cells after 72 hrs by Hoechst 33258 staining based matrigel coated transwell assay; assay type: functional, cell-based
MGC-803 [15] = experiment: Antimigratory activity in human MGC803 cells at 0.25 to 1 uM after 72 hrs by Hoechst 33258 staining based transwell assay; assay type: functional, cell-based
MGC-803 [16] = experiment: Induction of apoptosis in human MGC803 cells assessed as increase in Bax expression at 0.25 to 1 uM after 72 hrs by Western blot analysis; assay type: functional, cell-based
MGC-803 [17] = experiment: Induction of apoptosis in human MGC803 cells after 72 hrs by Annexin V-FITC/propidium iodide staining based flow cytometry; assay type: functional, cell-based

## CCCSc1nc(N2CCOCC2)c2nc(/C=C/C(=O)c3ccc(Cl)cc3)n(Cc3ccccc3)c2n1
TE-1
  IC50: 19.1 µM
MGC-803 [1]
  IC50: 8.32 µM
A549
  IC50: 17.1 µM
THP-1
  IC50: 3.71 µM

## CCCSc1nc(Cl)c2c(n1)N(Cc1ccccc1)C(C(=O)NCCCc1ccccc1)N2 (stereo not drawn)
GES1
  IC50: 24.9 µM
[2]
  selectivity ratio: 1.5
MGC-803 [3]
  inhibition: Active

## CCCSc1nc(NCc2ccccc2)c2nc(/C=C/C(=O)c3ccc(C)cc3)n(Cc3ccccc3)c2n1
TE-1
  IC50: > 32 µM
MGC-803 [1]
  IC50: 12.4 µM
A549
  IC50: 30.1 µM
THP-1
  IC50: > 32 µM

## CCCSc1nc(N2CCOCC2)c2nc(/C=C/C(=O)c3ccc(C)cc3)n(Cc3ccccc3)c2n1
TE-1
  IC50: 3.63 µM
MGC-803 [1]
  IC50: 1.55 µM
A549
  IC50: 4.9 µM
THP-1
  IC50: 2.76 µM

## CCCSc1nc(N2CCOCC2)c2nc(/C=C/C(=O)c3cc(OC)c(OC)c(OC)c3)n(Cc3ccccc3)c2n1
TE-1
  IC50: 9.93 µM
MGC-803 [1]
  IC50: 6.52 µM
A549
  IC50: > 32 µM
THP-1
  IC50: > 32 µM

## CCCSc1nc(N2CCOCC2)c2nc(/C=C/C(=O)c3ccc4ccccc4c3)n(Cc3ccccc3)c2n1
TE-1
  IC50: 23.8 µM
MGC-803 [1]
  IC50: 7.75 µM
A549
  IC50: 28.1 µM
THP-1
  IC50: > 32 µM

## CCCSc1nc(N2CCOCC2)c2nc(/C=C/C(=O)c3ccccc3Cl)n(Cc3ccccc3)c2n1
TE-1
  IC50: 4.87 µM
MGC-803 [1]
  IC50: 2.41 µM
A549
  IC50: 9.19 µM
THP-1
  IC50: 9.73 µM

## CCCSc1nc(N2CCOCC2)c2nc(/C=C/C(=O)c3ccccc3)n(Cc3ccccc3)c2n1
TE-1
  IC50: 7.38 µM
MGC-803 [1]
  IC50: 4.74 µM
A549
  IC50: 14.9 µM
GES1
  IC50: 35.6 µM
[2]
  selectivity ratio: 7.5
THP-1
  IC50: 1.41 µM

## CCCSc1nc(N2CCOCC2)c2nc(-c3ccccc3)n(Cc3ccccc3)c2n1
MGC-803 [1]
  IC50: > 32 µM
A549
  IC50: > 32 µM

## CCCSc1nc(N2CCCCC2)c2nc(/C=C/C(=O)c3ccc(C)cc3)n(Cc3ccccc3)c2n1
TE-1
  IC50: > 32 µM
MGC-803 [1]
  IC50: 15.7 µM
A549
  IC50: > 32 µM
THP-1
  IC50: > 32 µM

## CCCSc1nc(N2CCOCC2)c2nc(/C=C/C(=O)c3ccc(Br)cc3)n(Cc3ccccc3)c2n1
TE-1
  IC50: 13.3 µM
MGC-803 [1]
  IC50: 3.41 µM
A549
  IC50: 10.7 µM
THP-1
  IC50: 11.4 µM

## CCCSc1nc(N2CCOCC2)c2nc(/C=C/C(=O)c3cccc(OC)n3)n(Cc3ccccc3)c2n1
TE-1
  IC50: 10.7 µM
MGC-803 [1]
  IC50: 8.62 µM
A549
  IC50: > 32 µM
THP-1
  IC50: 9.73 µM

## CCCSc1nc(N2CCOCC2)c2nc(/C=C/C(=O)c3ccc(-c4ccccc4)cc3)n(Cc3ccccc3)c2n1
TE-1
  IC50: > 32 µM
MGC-803 [1]
  IC50: > 32 µM
A549
  IC50: > 32 µM
THP-1
  IC50: > 32 µM

## CCCSc1nc(N2CCOCC2)c2nc(/C=C/C(=O)c3ccc(OC)cc3)n(Cc3ccccc3)c2n1
TE-1
  IC50: 5.87 µM
MGC-803 [1]
  IC50: 3.1 µM
A549
  IC50: 7.63 µM
THP-1
  IC50: 2.52 µM

## CCCSc1nc(N2CCOCC2)c2nc(/C=C/c3ccccc3)n(Cc3ccccc3)c2n1
MGC-803 [1]
  IC50: 30.5 µM
A549
  IC50: > 32 µM

## CCCSc1nc(N2CCOCC2)c2nc(CCc3ccccc3)n(Cc3ccccc3)c2n1
MGC-803 [1]
  IC50: > 32 µM
A549
  IC50: > 32 µM

## CCCSc1nc(N2CCOCC2)c2nc(/C=C/C(=O)c3ccc(C)cc3)n(CC3CCCCC3)c2n1
TE-1
  IC50: 8.43 µM
MGC-803 [1]
  IC50: 4.02 µM
A549
  IC50: 10.5 µM
THP-1
  IC50: 3.83 µM

## CCCSc1nc(N2CCOCC2)c2nc(/C=C/C(=O)c3ccc(OC)c(OC)c3)n(Cc3ccccc3)c2n1
TE-1
  IC50: 8.56 µM
MGC-803 [1]
  IC50: 4.91 µM
A549
  IC50: 9.74 µM
THP-1
  IC50: > 32 µM

## CCCSc1nc(N2CCOCC2)c2nc(/C=C/C(=O)c3ccc(C)cc3)n(CCCc3ccccc3)c2n1
MGC-803 [4]
  Activity: Active
TE-1
  IC50: 8.52 µM
MGC-803 [1]
  IC50: 0.84 µM
A549
  IC50: 2.11 µM
MGC-803 [5]
  Activity: Dose-dependent effect
MGC-803 [6]
  Activity: Active
MGC-803 [7]
  Activity: Active
MGC-803 [8]
  Activity: Active
GES1
  IC50: 23.4 µM
MGC-803 [9]
  Activity: 86.3%
MGC-803 [10]
  Activity: Active
[2]
  selectivity ratio: 27.8
MGC-803 [11]
  Activity: Dose-dependent effect
MGC-803 [12]
  Activity: Dose-dependent effect
MGC-803 [13]
  Activity: Dose-dependent effect
MGC-803 [14]
  Activity: Dose-dependent effect
MGC-803 [15]
  Activity: Active
MGC-803 [3]
  inhibition: Dose-dependent effect
MGC-803 [16]
  Activity: Active
MGC-803 [17]
  Activity: Dose-dependent effect
THP-1
  IC50: 26.2 µM
